Assay results from patent US20090221642A1, “MUSCARINIC RECEPTOR AGONISTS, COMPOSITIONS, METHODS OF TREATMENT THEREOF, AND PROCESSES FOR PREPARATION THEREOF-176” (AstraZeneca AB, priority 2008, published 2009).

Target: T1, cloned human M2 receptor (human Muscarinic receptor subtype 2) (Homo sapiens, UniProt P08172)
T1 construct: purchased Perkin-Elmer RBHM2M; host or cells: Chinese hamster ovary cells (CHO) membranes
T1 sequence (P08172 1-466): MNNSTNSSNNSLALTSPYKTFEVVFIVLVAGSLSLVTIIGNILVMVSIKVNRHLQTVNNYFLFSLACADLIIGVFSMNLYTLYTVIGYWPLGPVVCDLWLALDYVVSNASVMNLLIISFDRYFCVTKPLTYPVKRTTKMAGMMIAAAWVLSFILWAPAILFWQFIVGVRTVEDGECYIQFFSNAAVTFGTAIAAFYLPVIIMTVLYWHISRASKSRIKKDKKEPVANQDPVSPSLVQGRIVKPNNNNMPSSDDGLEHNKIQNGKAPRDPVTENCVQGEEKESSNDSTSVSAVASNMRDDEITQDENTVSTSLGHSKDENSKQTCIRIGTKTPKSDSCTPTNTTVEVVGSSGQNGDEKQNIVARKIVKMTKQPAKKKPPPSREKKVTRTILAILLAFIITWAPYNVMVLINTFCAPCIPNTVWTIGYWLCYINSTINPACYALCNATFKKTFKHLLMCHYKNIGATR
Assay: hM2 receptor GTPγS binding
Type: biochemical
Conditions: CHO cell membranes expressing hM2; [35S]GTPγS binding; read-out: hM2 EC50
Protocol: hM2 Receptor GTPγS Binding
Membranes produced from Chinese hamster ovary cells (CHO) expressing the cloned human M2 receptor (human Muscarinic receptor subtype 2, gene bank access NM_000739), are obtained from Perkin-Elmer (RBHM2M). The membranes are thawed at 37° C., passed 3 times through a 23-gauge blunt-end needle, diluted in the GTPγS binding buffer (50 mM Hepes, 20 mM NaOH, 100 mM NaCl, 1 mM EDTA, 5 mM MgCl2, pH 7.4, 100 μM DTT). The EC50, IC50 and Emax of the compounds of the invention are evaluated from 10-point dose-response curves (three fold concentration range) done in 60 μl in 384-well non-specific binding surface plate (Corning). Ten microliters from the dose-response curves plate (5× concentration) are transferred to another 384 well plate containing 25 μl of the following: 5 μg of hM2 membranes, 500 μg of Flashblue beads (Perkin-Elmer) and GDP 25 μM. An additional 15 μl containing 3.3× (60,000 dpm) of GTPγ^35S (0.4 nM final) are added to the wells resulting in a total well volume of 50 μl. Basal and maximal stimulated [^35S]GTPγS binding are determined in absence and presence of 30 μM final of acetylcholine agonist. The membranes/beads mix are pre-incubated for 15 minutes at room temperature with 25 μM GDP prior to distribution in plates (12.5 μM final). The reversal of acetylcholine-induced stimulation (2 μM final) of [^35S]GTPγS binding is used to assay the antagonist properties (IC50) of the compounds. The plates are incubated for 60 minutes at room temperature then centrifuged at 400 rpm for 5 minutes. The radioactivity (cpm) is counted in a Trilux (Perkin-Elmer).
Values of EC50, IC50 and Emax are obtained using sigmoidal fits of a non-linear curve-fitting program (XLfit version 4.2.2 Excel add-in version 4.2.2 build 18 math 1Q version 2.1.2 build 18) of percent stimulated [^35S]GTPγS binding vs. log(molar ligand). All pEC50 and plC50 values are reported as arithmetic means ±standard error of mean of ‘n’ independent experiments.

Structure (SMILES)	EC50 [nM]
COC(=O)N1CCC(C)(N2CCC(n3c(=O)[nH]c4ccccc43)CC2)C1 (racemic) [Example 2, methyl 3-methyl-3-(4-(2-oxo-2,3-dihydro-1H-benzo[d]imidazol-1-yl)piperidin-1-yl)pyrrolidine-1-carboxylate]	865
CC1(N2CCC(n3c(=O)[nH]c4ccccc43)CC2)CCN(C(=O)OCCF)C1 (racemic) [Example 4, 2-fluoroethyl 3-methyl-3-(4-(2-oxo-2,3-dihydro-1H-benzo[d]imidazol-1-yl)piperidin-1-yl)pyrrolidine-1-carboxylate]	1860
CCOC(=O)N1CCC(C)(N2CCC(n3c(=O)[nH]c4cc(F)ccc43)CC2)C1 (single isomer, unassigned) [Example 6, ethyl 3-(4-(5-fluoro-2-oxo-2,3-dihydro-1H-benzo[d]imidazol-1-yl)piperidin-1-yl)-3-methylpyrrolidine-1-carboxylate]	588
CCOC(=O)N1CCC(C)(N2CCC(n3c(=O)[nH]c4cc(F)ccc43)CC2)C1 (single isomer, unassigned) [Example 7, ethyl 3-(4-(5-fluoro-2-oxo-2,3-dihydro-1H-benzo[d]imidazol-1-yl)piperidin-1-yl)-3-methylpyrrolidine-1-carboxylate]	4500
CCOC(=O)N1CCC(C)(N2CCC(n3c(=O)[nH]c4cc(C)ccc43)CC2)C1 (single isomer, unassigned) [Example 12, ethyl 3-methyl-3-(4-(5-methyl-2-oxo-2,3-dihydro-1H-benzo[d]imidazol-1-yl)piperidin-1-yl)pyrrolidine-1-carboxylate]	771
Cc1ccc2c(c1)[nH]c(=O)n2C1CCN(C2(C)CCN(C(=O)OC(C)C)C2)CC1 (single isomer, unassigned) [Example 14, isopropyl 3-methyl-3-(4-(5-methyl-2-oxo-2,3-dihydro-1H-benzo[d]imidazol-1-yl)piperidin-1-yl)pyrrolidine-1-carboxylate]	1500
Cc1ccc2c(c1)[nH]c(=O)n2C1CCN(C2(C)CCN(C(=O)OC(C)C)C2)CC1 (single isomer, unassigned) [Example 15, isopropyl 3-methyl-3-(4-(5-methyl-2-oxo-2,3-dihydro-1H-benzo[d]imidazol-1-yl)piperidin-1-yl)pyrrolidine-1-carboxylate]	2850
CC#CCOC(=O)N1CCC(C)(N2CCC(n3c(=O)[nH]c4ccc(C)cc43)CC2)C1 (single isomer, unassigned) [Example 20, but-2-ynyl 3-methyl-3-(4-(6-methyl-2-oxo-2,3-dihydro-1H-benzo[d]imidazol-1-yl)piperidin-1-yl)pyrrolidine-1-carboxylate]	61
CC#CCOC(=O)N1CCC(C)(N2CCC(n3c(=O)[nH]c4cc(C)ccc43)CC2)C1 (single isomer, unassigned) [Example 21, but-2-ynyl 3-methyl-3-(4-(5-methyl-2-oxo-2,3-dihydro-1H-benzo[d]imidazol-1-yl)piperidin-1-yl)pyrrolidine-1-carboxylate]	94
CC#CCOC(=O)N1CCC(C)(N2CCC(n3c(=O)[nH]c4cc(F)ccc43)CC2)C1 (single isomer, unassigned) [Example 22, but-2-ynyl 3-(4-(5-fluoro-2-oxo-2,3-dihydro-1H-benzo[d]imidazol-1-yl)piperidin-1-yl)-3-methylpyrrolidine-1-carboxylate]	126
COC(=O)N1CCC(C)(N2CCC(n3c(=O)[nH]c4cc(F)ccc43)CC2)C1 (single isomer, unassigned) [Example 23, methyl 3-(4-(5-fluoro-2-oxo-2,3-dihydro-1H-benzo[d]imidazol-1-yl)piperidin-1-yl)-3-methylpyrrolidine-1-carboxylate]	668
CC1(N2CCC(n3c(=O)[nH]c4cc(F)ccc43)CC2)CCN(C(=O)OCCF)C1 (single isomer, unassigned) [Example 24, 2-fluoroethyl 3-(4-(5-fluoro-2-oxo-2,3-dihydro-1H-benzo[d]imidazol-1-yl)piperidin-1-yl)-3-methylpyrrolidine-1-carboxylate]	1350
C#CCOC(=O)N1CCC(C)(N2CCC(n3c(=O)[nH]c4cc(F)ccc43)CC2)C1 (single isomer, unassigned) [Example 25, prop-2-ynyl 3-(4-(5-fluoro-2-oxo-2,3-dihydro-1H-benzo[d]imidazol-1-yl)piperidin-1-yl)-3-methylpyrrolidine-1-carboxylate]	146
Cc1ccc2[nH]c(=O)n(C3CCN(C4(C)CCN(C(=O)OCCF)C4)CC3)c2c1 (single isomer, unassigned) [Example 26, 2-fluoroethyl 3-methyl-3-(4-(6-methyl-2-oxo-2,3-dihydro-1H-benzo[d]imidazol-1-yl)piperidin-1-yl)pyrrolidine-1-carboxylate]	146
Cc1ccc2c(c1)[nH]c(=O)n2C1CCN(C2(C)CCN(C(=O)OCCF)C2)CC1 (single isomer, unassigned) [Example 27, 2-fluoroethyl 3-methyl-3-(4-(5-methyl-2-oxo-2,3-dihydro-1H-benzo[d]imidazol-1-yl)piperidin-1-yl)pyrrolidine-1-carboxylate]	620
Cc1ccc2[nH]c(=O)n(C3CCN(C4(C)CCN(C(=O)OCCF)C4)CC3)c2c1 (single isomer, unassigned) [Example 28, 2-fluoroethyl 3-methyl-3-(4-(6-methyl-2-oxo-2,3-dihydro-1H-benzo[d]imidazol-1-yl)piperidin-1-yl)pyrrolidine-1-carboxylate]	2400
CC1(N2CCC(n3c(=O)[nH]c4ccccc43)CC2)CCN(C(=O)OCCF)C1 (single isomer, unassigned) [Example 31, 2-fluoroethyl 3-methyl-3-(4-(2-oxo-2,3-dihydro-1H-benzo[d]imidazol-1-yl)piperidin-1-yl)pyrrolidine-1-carboxylate]	997
CC1(N2CCC(n3c(=O)[nH]c4ccccc43)CC2)CCN(C(=O)OCCF)C1 (single isomer, unassigned) [Example 32, 2-fluoroethyl 3-methyl-3-(4-(2-oxo-2,3-dihydro-1H-benzo[d]imidazol-1-yl)piperidin-1-yl)pyrrolidine-1-carboxylate]	5840
CC#CCOC(=O)N1CCC(C)(N2CCC(n3c(=O)[nH]c4ccccc43)CC2)C1 (single isomer, unassigned) [Example 33, but-2-ynyl 3-methyl-3-(4-(2-oxo-2,3-dihydro-1H-benzo[d]imidazol-1-yl)piperidin-1-yl)pyrrolidine-1-carboxylate]	104
CC#CCOC(=O)N1CCC(C)(N2CCC(n3c(=O)[nH]c4ccccc43)CC2)C1 (single isomer, unassigned) [Example 34, but-2-ynyl 3-methyl-3-(4-(2-oxo-2,3-dihydro-1H-benzo[d]imidazol-1-yl)piperidin-1-yl)pyrrolidine-1-carboxylate]	897
C#CCOC(=O)N1CCC(C)(N2CCC(n3c(=O)[nH]c4cc(F)ccc43)CC2)C1 (single isomer, unassigned) [Example 36, prop-2-ynyl 3-(4-(5-fluoro-2-oxo-2,3-dihydro-1H-benzo[d]imidazol-1-yl)piperidin-1-yl)-3-methylpyrrolidine-1-carboxylate]	1560
